Data as given in patent publication US20240398812A1 (Caraway Therapeutics, Inc., priority 2021, published 2024).
pEC50: −log10 of the molar value.

Legend:
Format in all cases: cell-based
human TRPML1 = human TRPML1 (Homo sapiens, UniProt Q9GZU1); assay: Fluorescent TRPML1 assay (Fluo4-AM calcium fluorescence, HEK-293 Trex cells)
In short: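 Tet-inducible HEK-293 Trex cells stably expressing surface-targeted mutant human TRPML1, induced with 0.5 ug/mL doxycycline overnight, loaded with Fluo4-AM and suspended in Ringer's with 10 mM calcium. Compounds tested from 20 μM to 6 nM final, half-log steps, in triplicate; fluorescence (ex 480/em 540) normalised to plate controls, EC50 by non-linear regression.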

TRPML2 = biological target: T1, TRPML2 (Homo sapiens, UniProt Q8IZK6); assay: Fluorescent TRPML2 assay (as for TRPML1)
T1 construct: expressed in transfected cells
T1 sequence (Q8IZK6 1-566): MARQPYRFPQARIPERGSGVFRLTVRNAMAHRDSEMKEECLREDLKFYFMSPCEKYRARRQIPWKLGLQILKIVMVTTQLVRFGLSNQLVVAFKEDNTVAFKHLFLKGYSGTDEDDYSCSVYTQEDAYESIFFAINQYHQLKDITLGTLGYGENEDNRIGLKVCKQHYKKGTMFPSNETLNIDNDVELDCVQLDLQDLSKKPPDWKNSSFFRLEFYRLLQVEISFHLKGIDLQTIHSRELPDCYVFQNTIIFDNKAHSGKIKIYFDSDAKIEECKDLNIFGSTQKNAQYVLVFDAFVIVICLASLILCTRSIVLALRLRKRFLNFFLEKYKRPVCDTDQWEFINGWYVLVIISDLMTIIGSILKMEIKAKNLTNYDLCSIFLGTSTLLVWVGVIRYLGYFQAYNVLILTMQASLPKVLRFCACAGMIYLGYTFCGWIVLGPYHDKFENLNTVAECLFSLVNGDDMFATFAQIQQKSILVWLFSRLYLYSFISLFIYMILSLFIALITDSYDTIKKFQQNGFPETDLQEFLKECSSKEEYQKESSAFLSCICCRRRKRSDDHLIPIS
In short: (§1)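 HEK-293 Trex cells with tet-inducible (0.5 ug/mL doxycycline, overnight) surface-targeted mutant channel, Fluo4-AM loaded, suspended in Ringer's with 10 mM calcium. Compounds tested 20 µM to 6 nM final, half-log steps, triplicate; fluorescence at ex 480/em 540 nm. EC50 by non-linear regression of percent activity versus plate controls.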

TRPML3 = biological target: T2, TRPML3 (Homo sapiens, UniProt Q8TDD5); assay: Fluorescent TRPML3 assay (as for TRPML1)
T2 construct: expressed in transfected cells
T2 sequence (Q8TDD5 1-553): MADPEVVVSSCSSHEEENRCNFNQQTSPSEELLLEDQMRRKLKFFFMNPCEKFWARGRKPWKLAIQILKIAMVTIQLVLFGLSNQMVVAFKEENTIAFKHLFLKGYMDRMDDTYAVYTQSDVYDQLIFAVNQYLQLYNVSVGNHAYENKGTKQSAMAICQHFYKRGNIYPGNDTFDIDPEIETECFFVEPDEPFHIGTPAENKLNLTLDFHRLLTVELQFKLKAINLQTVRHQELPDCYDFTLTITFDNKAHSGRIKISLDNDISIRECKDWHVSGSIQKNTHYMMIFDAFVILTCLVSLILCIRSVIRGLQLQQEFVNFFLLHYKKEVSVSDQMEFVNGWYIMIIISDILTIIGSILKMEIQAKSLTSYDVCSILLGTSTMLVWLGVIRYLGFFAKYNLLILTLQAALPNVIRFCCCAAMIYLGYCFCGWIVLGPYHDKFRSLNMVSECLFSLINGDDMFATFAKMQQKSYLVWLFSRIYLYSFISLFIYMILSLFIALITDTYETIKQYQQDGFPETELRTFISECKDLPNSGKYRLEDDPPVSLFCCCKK
In short: as §1

Sequence of human TRPML1 (Q9GZU1 whole entry L15A/L16A/L577A/L578A, form open): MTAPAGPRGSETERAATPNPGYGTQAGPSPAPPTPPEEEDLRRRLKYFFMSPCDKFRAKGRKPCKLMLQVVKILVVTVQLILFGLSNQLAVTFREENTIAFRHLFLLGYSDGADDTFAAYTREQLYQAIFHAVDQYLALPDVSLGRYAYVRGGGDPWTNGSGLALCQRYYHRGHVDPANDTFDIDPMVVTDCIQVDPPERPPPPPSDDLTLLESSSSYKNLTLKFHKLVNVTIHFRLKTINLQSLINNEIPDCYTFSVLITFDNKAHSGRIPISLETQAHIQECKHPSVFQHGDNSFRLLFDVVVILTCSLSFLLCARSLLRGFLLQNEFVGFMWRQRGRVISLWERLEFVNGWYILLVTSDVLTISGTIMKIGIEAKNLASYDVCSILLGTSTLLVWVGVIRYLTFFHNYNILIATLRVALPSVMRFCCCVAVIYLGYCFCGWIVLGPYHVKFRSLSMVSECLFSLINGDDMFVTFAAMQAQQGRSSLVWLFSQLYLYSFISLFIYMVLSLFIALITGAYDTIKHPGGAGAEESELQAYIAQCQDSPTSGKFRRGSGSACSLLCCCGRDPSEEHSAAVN

Structure (SMILES)	pEC50 (human TRPML1; Table 3, compounds 101-177)	pEC50 (TRPML2; Table 3, compounds 101-177)	pEC50 (TRPML3; Table 3, compounds 101-177)	pEC50 (human TRPML1; Table 3, compounds 201-283)	pEC50 (TRPML2; Table 3, compounds 201-283)	pEC50 (TRPML3; Table 3, compounds 201-283)
CC(C)C(=O)N1CCN(c2ncnc3c2c(-c2ccccc2F)cn3-c2cc(C#N)n(C)n2)[C@@H](C)C1 [Compound 146, (S)-3-(5-(2-fluorophenyl)-4-(4-isobutyryl-2-methylpiperazin-1-yl)-7H-pyrrolo[2,3-d]pyrimidin-7-yl)-1-methyl-1H-pyrazole-5-carbonitrile]	6.30 to 7.00	5.70 to 6.30	6.30 to 7.00			
C[C@H]1CN(C(=O)CC(C)(C)C(F)(F)F)CCN1c1ncnc2c1c(C1CC1)cn2-c1cc(C#N)ccn1 [Compound 141, (S)-2-(5-cyclopropyl-4-(2-methyl-4-(4,4,4-trifluoro-3,3-dimethylbutanoyl)piperazin-1-yl)-7H-pyrrolo[2,3-d]pyrimidin-7-yl)isonicotinonitrile]	> 7.00	6.30 to 7.00	> 7.00			
C[C@H]1CN(C(=O)C(C)(C)C)CCN1c1ncnc2c1c(-c1ccccn1)cn2-c1cc(C#N)ccn1 [Compound 117, (S)-2-(4-(2-methyl-4-pivaloylpiperazin-1-yl)-5-(pyridin-2-yl)-7H-pyrrolo[2,3-d]pyrimidin-7-yl)isonicotinonitrile]	> 7.00	5.70 to 6.30	6.30 to 7.00			
C[C@@H]1CN(c2ncnc3c2c(-c2ccccc2F)cn3-c2cc(C#N)ccn2)CCN1C(=O)C1(F)CC1 [Compound 131]	> 7.00	6.30 to 7.00	> 7.00			
C[C@@H]1CN(c2ncnc3c2c(C2CCC2)cn3-c2cccc(C(F)(F)F)c2)[C@@H](C)CN1C(=O)C(C)(C)C [Compound 261, 1-((2R,5S)-4-(5-cyclobutyl-7-(3-(trifluoromethyl)phenyl)-7H-pyrrolo[2,3-d]pyrimidin-4-yl)-2,5-dimethylpiperazin-1-yl)-2,2-dimethylpropan-1-one]				> 7.00	< 5.70	5.70 to 6.30
CC(C)C(=O)N1CCN(c2ncnc3c2c(-c2ccccc2F)cn3-c2cc(C#N)ccn2)C[C@H]1C [Compound 107, (R)-2-(5-(2-fluorophenyl)-4-(4-isobutyryl-3-methylpiperazin-1-yl)-7H-pyrrolo[2,3-d]pyrimidin-7-yl)isonicotinonitrile]	> 7.00	6.30 to 7.00	> 7.00			
C[C@@H]1CN(c2nccc3c2c(C2CC2)cn3-c2cccc(F)c2)[C@@H](C)CN1C(=O)C(C)(C)C [Compound 229, 1-((2R,5S)-4-(3-cyclopropyl-1-(3-fluorophenyl)-1H-pyrrolo[3,2-c]pyridin-4-yl)-2,5-dimethylpiperazin-1-yl)-2,2-dimethylpropan-1-one]				> 7.00	< 5.70	> 7.00
CC(C)C(=O)N1CCN(c2ncnc3c2c(-c2ccccc2F)cn3-c2cc(C#N)ccn2)C2(CC2)C1 [Compound 155, 2-(5-(2-fluorophenyl)-4-(7-isobutyryl-4,7-diazaspiro[2.5]octan-4-yl)-7H-pyrrolo[2,3-d]pyrimidin-7-yl)isonicotinonitrile]	> 7.00	6.30 to 7.00	> 7.00			
C[C@H]1CN(C(=O)C2(C)CC2)CCN1c1ncnc2c1c(-c1ccccc1)cn2-c1cc(C#N)ccn1 [Compound 128, (S)-2-(4-(2-methyl-4-(1-methylcyclopropane-1-carbonyl)piperazin-1-yl)-5-phenyl-7H-pyrrolo[2,3-d]pyrimidin-7-yl)isonicotinonitrile]	> 7.00	> 7.00	> 7.00			
C[C@@H]1CN(c2ncnc3c2c(C(F)(F)F)cn3-c2cccc(Cl)c2)[C@@H](C)CN1C(=O)C(C)(C)C [Compound 204, 1-((2R,5S)-4-(7-(3-chlorophenyl)-5-(trifluoromethyl)-7H-pyrrolo[2,3-d]pyrimidin-4-yl)-2,5-dimethylpiperazin-1-yl)-2,2-dimethylpropan-1-one]				> 7.00	6.30 to 7.00	> 7.00
C[C@@H]1CN(c2ncnc3c2c(N2CCCC2)cn3-c2cccc(Cl)c2)CCN1C(=O)C1(F)CC1 [Compound 279, (R)-(4-(7-(3-chlorophenyl)-5-(pyrrolidin-1-yl)-7H-pyrrolo[2,3-d]pyrimidin-4-yl)-2-methylpiperazin-1-yl)(1-fluorocyclopropyl)methanone]				6.30 to 7.00	5.70 to 6.30	5.70 to 6.30
COC(C)(C)C(=O)N1CCN(c2ncnc3c2c(-c2ccccc2F)cn3-c2cc(C#N)ccn2)C[C@H]1C [Compound 266, (R)-2-(5-(2-fluorophenyl)-4-(4-(2-methoxy-2-methylpropanoyl)-3-methylpiperazin-1-yl)-7H-pyrrolo[2,3-d]pyrimidin-7-yl)isonicotinonitrile]				> 7.00	6.30 to 7.00	> 7.00
C[C@H]1CN(C(=O)C2(F)CC2)CCN1c1ncnc2c1c(N1CCCC1)cn2-c1cccc(Cl)c1 [Compound 278, (S)-(4-(7-(3-chlorophenyl)-5-(pyrrolidin-1-yl)-7H-pyrrolo[2,3-d]pyrimidin-4-yl)-3-methylpiperazin-1-yl)(1-fluorocyclopropyl)methanone]				> 7.00	6.30 to 7.00	6.30 to 7.00

Results, then the compound that gave them:

pEC50 (human TRPML1; Table 3, compounds 101-177)	pEC50 (TRPML2; Table 3, compounds 101-177)	pEC50 (TRPML3; Table 3, compounds 101-177)	pEC50 (human TRPML1; Table 3, compounds 201-283)	pEC50 (TRPML2; Table 3, compounds 201-283)	pEC50 (TRPML3; Table 3, compounds 201-283)	Structure (SMILES)
			> 7.00	6.30 to 7.00	> 7.00	COC1(C(=O)N2C[C@H](C)N(c3ncnc4c3c(-c3ccccc3F)cn4-c3cc(C#N)ccn3)C[C@H]2C)CC1 [Compound 267, 2-(5-(2-fluorophenyl)-4-((2S,5R)-4-(1-methoxycyclopropane-1-carbonyl)-2,5-dimethylpiperazin-1-yl)-7H-pyrrolo [2,3-d]pyrimidin-7-yl)isonicotinonitrile]
			6.30 to 7.00	6.30 to 7.00	> 7.00	C[C@@H]1CN(c2ncnc3c2c(C2CCC2)cn3-c2cc(C#N)ccn2)[C@@H](C)CN1C(=O)C(C)(C)C(F)(F)F [Compound 240, 2-(5-cyclobutyl-4-((2S,5R)-2,5-dimethyl-4-(3,3,3-trifluoro-2,2-dimethylpropanoyl)piperazin-1-yl)-7H-pyrrolo[2,3-d]pyrimidin-7-yl)isonicotinonitrile]
> 7.00	5.70 to 6.30	> 7.00				C[C@@H]1CN(c2ncnc3c2c(C2CC2)cn3-c2cc(C#N)ccn2)[C@@H](C)CN1C(=O)CC(C)(C)C [Compound 153, 2-(5-cyclopropyl-4-((2S,5R)-4-(3,3-dimethylbutanoyl)-2,5-dimethylpiperazin-1-yl)-7H-pyrrolo[2,3-d]pyrimidin-7-yl)isonicotinonitrile]
			6.30 to 7.00	< 5.70	5.70 to 6.30	C[C@@H]1CN(c2ncnc3c2c(C2CCC2)cn3-c2cc(C#N)ccn2)[C@@H](C)CN1C(=O)C(C)(C)C [Compound 237, 2-(5-cyclobutyl-4-((2S,5R)-2,5-dimethyl-4-pivaloylpiperazin-1-yl)-7H-pyrrolo[2,3-d]pyrimidin-7-yl)isonicotinonitrile]
			> 7.00	6.30 to 7.00	> 7.00	CC(C)CC(=O)N1CCN(c2ncnc3c2c(N2CCC2)cn3-c2cc(C#N)ccn2)C[C@H]1C [Compound 272, (R)-2-(5-(azetidin-1-yl)-4-(3-methyl-4-(3-methylbutanoyl)piperazin-1-yl)-7H-pyrrolo[2,3-d]pyrimidin-7-yl)isonicotinonitrile]
6.30 to 7.00	< 5.70	< 5.70				Cc1nccnc1-c1cn(-c2cc(C#N)ccn2)c2ncnc(N3C[C@@H](C)N(C(=O)CC(C)C)C[C@@H]3C)c12 [Compound 173, 2-(4-((2S,5R)-2,5-dimethyl-4-(3-methylbutanoyl)piperazin-1-yl)-5-(3-methylpyrazin-2-yl)-7H-pyrrolo[2,3-d]pyrimidin-7-yl)isonicotinonitrile]
> 7.00	6.30 to 7.00	> 7.00				CC(C)C(=O)N1CCN(c2ncnc3c2c(-c2ccccc2F)cn3-c2cc(C#N)ccn2)[C@@H](C)C1 [Compound 102, (S)-2-(5-(2-fluorophenyl)-4-(4-isobutyryl-2-methylpiperazin-1-yl)-7H-pyrrolo[2,3-d]pyrimidin-7-yl)isonicotinonitrile]
